In the supplement of paper PMC10307832:

Key:
Experiment in all cases: relative viability (nuclei count vs DMSO), 5 days (fraction); higher = more cells survive
[1] = compound: C1=CC2=NC=CN=C2C=C1/C=C/3\C(=O)NC(=O)S3 + CC(C)C[C@H](NC(=O)[C@H](Cc1ccccc1)NC(=O)c1cnccn1)B(O)O [Bortezomib] (partner 0.002 µM)
Method in brief: (§1)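 Lung cancer cell lines in 1536-well plates got either a single drug or a fixed anchor-drug dose together with five library-drug doses (not always all listed) in √10 steps, by pin tool, on the day after seeding. Nuclei were counted after 5 days, and relative viability is the treated-to-vehicle ratio of nuclei counts. Values are medians of duplicate plates.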

[2] = compound: C1=CC2=NC=CN=C2C=C1/C=C/3\C(=O)NC(=O)S3 + CS(=O)(=O)CCNCc1ccc(-c2ccc3ncnc(Nc4ccc(OCc5cccc(F)c5)c(Cl)c4)c3c2)o1 [Lapatinib] (partner 2 µM)
Method in brief: as §1

[3] = compound: C1=CC2=NC=CN=C2C=C1/C=C/3\C(=O)NC(=O)S3 + Cc1cc(Nc2cc(N3CCN(C)CC3)nc(Sc3ccc(NC(=O)C4CC4)cc3)n2)n[nH]1 [Tozasertib] (partner 0.1 µM)
Method in brief: as §1

[4] = compound: C1=CC2=NC=CN=C2C=C1/C=C/3\C(=O)NC(=O)S3 + O=C(c1cc(Cc2n[nH]c(=O)c3ccccc23)ccc1F)N1CCN(C(=O)C2CC2)CC1 [Olaparib] (partner 8 µM)
Method in brief: as §1

Cell Line	relative viability ([1]; first compound 0.02 µM)	relative viability ([1]; first compound 0.06325 µM)	relative viability ([1]; first compound 0.2 µM)	relative viability ([1]; first compound 0.6325 µM)	relative viability ([1]; first compound 2 µM)	relative viability ([2]; first compound 0.02 µM)	relative viability ([2]; first compound 0.06325 µM)	relative viability ([2]; first compound 0.2 µM)	relative viability ([2]; first compound 0.6325 µM)	relative viability ([2]; first compound 2 µM)	relative viability ([3]; first compound 0.02 µM)	relative viability ([3]; first compound 0.06325 µM)	relative viability ([3]; first compound 0.2 µM)	relative viability ([3]; first compound 0.6325 µM)	relative viability ([3]; first compound 2 µM)	relative viability ([4]; first compound 0.02 µM)	relative viability ([4]; first compound 0.06325 µM)	relative viability ([4]; first compound 0.2 µM)	relative viability ([4]; first compound 0.6325 µM)	relative viability ([4]; first compound 2 µM)
LU99A	1.09	1.32	1.41	1.07	0.747	0.976	1.06	1.07	0.854	0.645	0.264	0.284	0.238	0.308	0.251	0.28	0.416	0.276	0.243	0.26
ABC-1	0.3	0.263	0.328	0.261	0.27	1.06	0.754	1.18	1	1.02	0.175	0.217	0.193	0.165	0.179	0.712	0.88	0.859	0.782	0.735
NCI-H2347	0.769	1.17	1.05	0.932	0.926	0.886	0.88	1	0.79	0.852	0.553	0.554	0.546	0.633	0.601	0.528	0.583	0.553	0.635	0.543
NCI-H1993	0.892	1.02	1.05	0.952	0.724	0.784	0.776	0.846	0.829	0.743	0.545	0.593	0.612	0.543	0.436	0.976	1.06	1.05	1.05	0.182
NCI-H322M	1.18	1.1	1.26	1.19	0.973	0.428	0.573	0.61	0.656	0.368	0.523	0.466	0.482	0.461	0.425	0.733	0.827	0.767	0.801	0.641
NCI-H838	0.711	0.908	0.878	0.595	0.684	1.06	1.09	0.969	0.827	0.707	0.299	0.271	0.221	0.238	0.242	0.731	0.872	0.795	0.71	0.636
HARA	1.11	1.18	1.26	1.09	1.15	0.668	0.984	0.997	0.633	0.31	0.0982	0.133	0.128	0.104	0.11	0.899	0.54	0.687	1.06	0.615
NCI-H2087	0.831	0.942	0.68	0.809	0.805	0.859	1.24	0.941	0.98	0.931	0.206	0.273	0.212	0.243	0.238	0.484	0.646	0.57	0.631	0.447
NCI-H1437	0.475	0.647	0.564	0.475	0.408	0.791	0.825	0.806	0.715	0.572	0.404	0.388	0.388	0.418	0.323	0.584	0.648	0.623	0.643	0.653
NCI-H650	0.977	0.775	0.907	0.78	0.379	1.13	1.1	1.09	0.835	0.5	0.777	0.725	0.705	0.749	0.55	0.422	0.397	0.466	0.444	0.267
COR-L23	0.906	0.947	0.972	0.95	0.941	0.832	1.31	0.921	0.771	0.923	0.168	0.218	0.19	0.211	0.188	0.273	0.383	0.323	0.401	0.36
COR-L 105	0.717	0.887	0.864	0.759	0.755	0.332	0.343	0.368	0.335	0.289	0.311	0.369	0.343	0.349	0.354	0.674	0.711	0.701	0.819	0.723
201T	0.979	1.1	1.1	1.08	1.03	0.854	1.02	0.979	0.972	0.8	0.8	0.922	0.917	0.873	0.854	0.878	0.81	0.844	0.828	0.866
HCC-44	0.818	0.958	0.869	0.883	0.71	0.961	1.09	0.975	0.993	0.793	0.896	0.875	0.947	0.874	0.605	0.9	1.07	0.924	0.965	0.945
NCI-H596	1.36	1.06	1.17	0.876	–	1.1	1.25	1.04	1.06	1.04	0.934	0.951	1.1	0.733	0.902	0.712	0.719	0.677	0.726	0.729
H3255	0.869	0.91	0.778	0.682	0.741	0.318	0.241	0.282	0.238	0.217	0.575	0.644	0.55	0.602	0.698	0.583	0.509	0.56	0.594	0.517
NCI-H647	1.1	1.16	1.11	0.72	0.951	1.06	1.75	1.15	0.957	0.903	0.398	0.258	0.423	0.268	0.357	0.438	0.532	0.537	0.51	0.496
NCI-H2023	0.924	0.923	1.03	0.875	0.645	0.872	0.735	1.01	0.764	0.466	0.404	0.321	0.472	0.379	0.335	0.428	0.461	0.508	0.492	0.498
NCI-H23	0.954	1.37	1.27	0.843	0.678	0.887	1.12	1.07	1.15	0.759	0.337	0.314	0.363	0.401	0.329	0.236	0.326	0.313	0.35	0.255
NCI-H520	0.793	0.632	0.538	0.489	0.657	0.842	0.92	0.832	0.757	0.882	0.394	0.378	0.451	0.416	0.458	0.283	0.321	0.352	0.298	0.345
NCI-H460	1.01	1.05	1.03	0.932	0.942	0.832	1.15	1.03	0.815	0.689	0.411	0.262	0.441	0.392	0.395	0.391	0.361	0.438	0.45	0.397
EKVX	0.906	1.07	0.969	0.911	0.871	0.215	0.18	0.251	0.207	0.146	0.423	0.321	0.38	0.449	0.352	0.668	0.828	0.824	0.812	0.838
EPLC-272H	0.8	1.05	0.898	0.857	0.808	0.895	1.18	1.11	0.916	0.576	0.263	0.253	0.254	0.259	0.175	0.865	0.64	0.971	0.898	0.542
NCI-H2126	1.08	1.16	1.11	1.08	0.716	0.625	0.898	0.758	0.739	0.361	0.841	0.882	0.857	0.759	0.528	0.932	0.946	0.841	0.904	0.799
LXF-289	0.977	0.985	1.05	0.941	1.02	0.829	0.932	0.883	0.857	0.908	0.186	0.147	0.185	0.185	0.168	0.993	0.997	1.06	1.01	1.01
NCI-H2009	0.954	1.07	1.11	0.969	0.801	0.873	0.965	1.03	1.03	0.802	0.747	0.77	0.721	0.744	0.761	0.685	0.715	0.685	0.739	0.703
NCI-H2405	0.96	1.06	0.991	1	0.782	1.24	1.39	1.13	1.11	0.323	0.764	0.768	0.73	0.727	0.637	0.791	0.999	0.851	0.848	0.712
